Assay results as given in patent US11752103B2, “Tramadol hydrochloride solution” (Athena Bioscience, LLC, priority 2019, dated 2023).
Counter-ions that a name gives are not always drawn.

Tests used:
[1] = Physicochemical data of tramadol hydrochloride
Procedure: Therefore, the Ex. 2 solution was evaluated for further studies.

μ-opioid receptors = conditions: times more potent than tramadol; cited from earlier work
[2] = animal models; times more potent than tramadol; cited from earlier work

SMILES	pH of tramadol hydrochloride [1]	pKa [1]	solubility ([1]; pH of about 4.5)	potency in μ-opioid binding relative to tramadol (μ-opioid receptors) [times]	potency in producing analgesia relative to tramadol [2]
COc1cccc(C2(O)CCCCC2CN(C)C)c1 (mixture of isomers) [tramadol hydrochloride, (±) cis-2-[(dimethylamino)methyl]-1-(3-methoxyphenyl)cyclohexan-1-ol, hydrochloride]	about 5.3	9.8	freely soluble		
CN(C)C[C@@H]1CCCC[C@@]1(O)c1cccc(O)c1 (relative stereo) [ODMT, 3-[cis-2-[(dimethylamino)methyl]-1-hydroxycyclohexyl]-phenol]				200	up to 6 times
